According to patent US7345033B2, “Carbamoyl-and thiocarbamoyl-phosphonates and pharmaceutical compositions comprising them” (Yissum Research Development Company of the Hebrew …, priority 2003, dated 2008):
Read-outs that look alike come from different tables or passages of the source.

Assays:
[1] = target: T1, recombinant MMP-2 (Homo sapiens, UniProt P08253); experiment: MMP inhibitory potency in vitro, succinylated-gelatin colorimetric assay; assay type: biochemical; details: for times more active on MMP-2 than its analog or isomer: 11 vs 6, 9 vs 9a, 10 vs 10a, 11 vs 11a
T1 construct: purchased
T1 sequence (P08253 110-660): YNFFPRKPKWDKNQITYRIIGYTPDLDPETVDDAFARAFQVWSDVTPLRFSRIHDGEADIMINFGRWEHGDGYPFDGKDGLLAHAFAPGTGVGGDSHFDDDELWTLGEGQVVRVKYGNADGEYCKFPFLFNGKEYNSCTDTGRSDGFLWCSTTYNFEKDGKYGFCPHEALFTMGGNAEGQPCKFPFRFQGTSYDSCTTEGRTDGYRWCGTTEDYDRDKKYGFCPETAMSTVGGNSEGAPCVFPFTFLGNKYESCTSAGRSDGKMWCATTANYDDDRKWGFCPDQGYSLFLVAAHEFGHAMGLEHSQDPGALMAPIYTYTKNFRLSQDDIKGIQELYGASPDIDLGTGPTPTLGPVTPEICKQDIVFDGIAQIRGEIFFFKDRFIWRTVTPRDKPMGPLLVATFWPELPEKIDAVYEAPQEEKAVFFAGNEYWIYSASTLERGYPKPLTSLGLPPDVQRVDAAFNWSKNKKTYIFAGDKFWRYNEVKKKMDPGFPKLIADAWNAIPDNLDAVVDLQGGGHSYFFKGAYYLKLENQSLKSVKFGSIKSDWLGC
Protocol: (§1) Determination of MMP Inhibitory Potency (IC50 Values) in vitro
(§2) The commercially available recombinant MMP-2 and MMP-9 enzymes were incubated with succinylated-gelatin at four different concentrations for 3 h. The examined compounds were added at four to six different concentrations to the recombinant enzymes and the inhibitory potencies were expressed in a colorimetric change measured by an ELISA reader. The inhibitory activity (IC50) was calculated from the kinetic data obtained.

[2] = target: T2, recombinant MMP-9 (Homo sapiens, UniProt P14780); experiment: as above; assay type: biochemical
T2 construct: purchased
T2 sequence (P14780 94-707, species assumed): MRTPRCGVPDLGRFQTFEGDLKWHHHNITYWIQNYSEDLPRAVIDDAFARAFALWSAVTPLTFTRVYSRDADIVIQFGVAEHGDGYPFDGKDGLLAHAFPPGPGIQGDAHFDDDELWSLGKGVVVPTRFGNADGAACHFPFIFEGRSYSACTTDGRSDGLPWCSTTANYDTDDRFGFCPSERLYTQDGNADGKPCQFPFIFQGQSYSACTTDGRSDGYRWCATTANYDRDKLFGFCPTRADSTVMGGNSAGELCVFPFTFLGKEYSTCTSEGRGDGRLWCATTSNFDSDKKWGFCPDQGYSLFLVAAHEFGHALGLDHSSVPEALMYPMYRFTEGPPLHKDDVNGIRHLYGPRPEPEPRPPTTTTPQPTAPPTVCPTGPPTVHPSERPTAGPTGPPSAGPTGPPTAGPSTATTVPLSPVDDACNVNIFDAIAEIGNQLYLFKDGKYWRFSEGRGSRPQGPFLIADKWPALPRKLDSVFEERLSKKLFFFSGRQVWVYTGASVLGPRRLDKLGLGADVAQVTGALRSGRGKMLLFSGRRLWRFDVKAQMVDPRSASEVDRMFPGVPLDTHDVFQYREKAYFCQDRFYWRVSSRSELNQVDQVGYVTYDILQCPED
Protocol: as §1, §2

[3] = tested on: Endothelial cells; experiment: Endothelial cell capillary tube formation; assay type: cell-based; details: read-out: Capillary Formation Inhibition % At 50 μM
Description: Endothelial Cell Capillary Tube Formation
Some of the compounds were examined as to their potency to inhibit capillary formation, which is an in vitro model of angiogenesis, an essential step in the development of primary tumor and metastatic lesions. Endothelial cell migration to the newly formed tumor is the initial phase of angiogenesis, and is dependent on MMP expression. By using this assay that measures endothelial cell tube formation, the effects of some carbamoylphosphonates on angiogenesis at concentrations ranging from 100-5 μM were evaluated.
Description of the Endothelial Cell Capillary Tube Formation Experiment
Endothelial cells are harvested by 1 mM EDTA, and added to a Matrigel layer in a 24 well plate at 50,000 cells per well. After attachment, culture media (1 ml) is added and the plate is incubated as a monolayer culture. The plates are analyzed hourly using Hoffinan optics. This assay is used to evaluate inhibitory factors or stimulatory factors on capillary like structure formation, which may be added into the culture media.

[4] = tested on: cancer cells; experiment: Matrigel chemoinvasion assay (Boyden chambers); assay type: cell-based; details: 6 h, read-out: Chemoinvasion % inhibition at 50 μM
Description: Matrigel Chemoinvasion Assay
This assay measures in vitro the potency of the compounds to repress the invasiveness of cancer cells, by inhibiting the MMPs produced by them. The assay uses a reconstituted basement membrane preparation, which is similar to the natural basement membranes that the tumor cells have to cross, in order to disseminate. The compounds examined have been added to the invasion chambers at various concentrations, and the resulted invasion was compared to untreated preparations.
Description of the of the Matrigel Chemoinvasion Experiment
a) The chemoinvasion assays were performed in Boyden chambers. Matrigel (25 μg) was dried on a polycarbonated filter (PVP free, Nucleopore). Fibroblast conditioned medium (obtained from confluent NIH-3T3 cells cultured in serum free DMEM) is used as the chemoattractant. […] The chambers were incubated in a humidified incubator at 37° C. in 5% CO2/95% air atmosphere for 6 h. The cells, which traversed the Matrigel layer and attached to the lower surface of the filter, were stained with Diff Quick (American Scientific Products) and counted.
The various compounds were examined as potential inhibitors at three concentrations: 100 μM, 50 μM and 10 μM.

[5] = tested on: murine melanoma; experiment: Tumor growth and metastasis in vivo, murine melanoma model; design: species or system mice; details: for inhibition in vivo at 50 mg/kg: Mus musculus, 504 h; for oral bioavailability: values equal the PO % reduction in murine melanoma of Table 1
Description: Tumor Growth and Metastasis in Animal Models—in vivo Test
The abilities of the novel carbamoylphosphonates to inhibit the formation of metastatic lesions in vivo were examined in the murine melanoma model both by intraperitoneal (IP) and peroral (PO) administration. […] This is especially important, since oral administration is the most convenient one for the patient, especially for long term chronic treatments such as those envisaged for drugs that are the subject of this application.

[6] = target: MMP-3 (Homo sapiens, UniProt P08254); experiment: Selectivity towards different MMPs: MMP-3; assay type: biochemical; details: Table 2
Chain of MMP-3 (P08254 100-477, species assumed): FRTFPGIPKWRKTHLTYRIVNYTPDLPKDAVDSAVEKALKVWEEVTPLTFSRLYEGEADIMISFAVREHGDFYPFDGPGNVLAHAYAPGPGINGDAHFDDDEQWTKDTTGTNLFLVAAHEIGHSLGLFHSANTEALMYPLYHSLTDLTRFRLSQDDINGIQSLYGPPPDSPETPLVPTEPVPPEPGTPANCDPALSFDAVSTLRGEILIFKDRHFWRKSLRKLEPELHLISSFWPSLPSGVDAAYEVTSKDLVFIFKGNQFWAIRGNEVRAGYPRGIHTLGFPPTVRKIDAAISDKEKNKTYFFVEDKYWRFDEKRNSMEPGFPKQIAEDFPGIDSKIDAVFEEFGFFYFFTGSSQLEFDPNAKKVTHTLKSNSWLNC

[7] = target: T3, MMP-1 (Homo sapiens, UniProt P03956); experiment: Selectivity towards different MMPs: MMP-1; assay type: biochemical; details: Table 2
T3 sequence (P03956 100-469): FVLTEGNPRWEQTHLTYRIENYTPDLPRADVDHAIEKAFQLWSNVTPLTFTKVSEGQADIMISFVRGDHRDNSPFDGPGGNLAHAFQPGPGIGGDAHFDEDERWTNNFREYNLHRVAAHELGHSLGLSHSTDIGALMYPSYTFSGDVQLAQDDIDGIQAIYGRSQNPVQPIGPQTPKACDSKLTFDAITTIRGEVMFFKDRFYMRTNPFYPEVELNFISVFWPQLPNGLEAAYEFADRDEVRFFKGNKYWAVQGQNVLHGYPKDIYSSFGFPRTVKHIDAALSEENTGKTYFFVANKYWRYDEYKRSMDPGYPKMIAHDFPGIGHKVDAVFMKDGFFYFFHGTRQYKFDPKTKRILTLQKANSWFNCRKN

[8] = target: MMP-8 (Homo sapiens, UniProt P22894); experiment: Selectivity towards different MMPs: MMP-8; assay type: biochemical; details: Table 2
Chain of MMP-8 (P22894 101-467, species assumed): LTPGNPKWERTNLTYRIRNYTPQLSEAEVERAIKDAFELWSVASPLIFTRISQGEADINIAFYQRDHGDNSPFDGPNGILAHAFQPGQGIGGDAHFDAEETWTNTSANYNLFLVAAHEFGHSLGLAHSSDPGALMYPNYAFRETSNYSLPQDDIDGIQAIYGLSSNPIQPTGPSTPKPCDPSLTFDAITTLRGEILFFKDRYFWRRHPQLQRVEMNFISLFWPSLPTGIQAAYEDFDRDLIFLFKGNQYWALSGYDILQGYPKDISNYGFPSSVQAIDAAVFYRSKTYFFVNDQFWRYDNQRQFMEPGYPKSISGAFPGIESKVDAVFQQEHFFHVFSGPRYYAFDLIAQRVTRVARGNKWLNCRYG

[9] = Acute in vivo toxicity in healthy mice; details: daily for two weeks at 50, 250 and 500 mg/kg
Description: Determination of Acute in vivo Toxicity of Representative Carbamoylphosphonates

[10] = ip, read-out: In vivo murine melanoma % reduction IP
[11] = po, read-out: In vivo murine melanoma % reduction PO

SMILES | IC50 ([1]; Table 1, read-out: MMP-2 IC50) [nM] | inhibition at 50 µM [3] [%] | inhibition at 50 µM [4] [%] | inhibition in vivo at 50 mg/kg [5, 10] [%] | inhibition in vivo at 50 mg/kg [5, 11] [%] | melting point [°C] | IC50 [6] [nM] | IC50 [7] [nM] | IC50 [8] [nM] | IC50 [1] [nM] | IC50 [2] [µM] | further results
O=C(NCC1CCCCC1)P(=O)(O)O [Compound 5, cyclohexylmethyl carbamoylphosphonic acid] | 200 | 53 | 50 | 69 | 14 |  |  |  |  |  |  | IC50 ([2]; Table 1, read-out: MMP-9 IC50): 1 µM; oral bioavailability [5]: 14%
C[C@@H](NC(=O)P(=O)(O)O)C1CCCCC1 [Compound 9, N—[(R)-1-Cyclohexylethyl]carbamoylphosphonic acid] | 200 | 35 |  |  |  | 155 to 156 | > 100000 | > 100000 | > 100000 |  |  | times more active on MMP-2 than its analog or isomer [1]: five times more active; IC50 ([1]; Table 2, read-out: MMP-2 IC50): 200 nM; IC50 ([2]; Table 1, read-out: MMP-9 IC50): ≥ 100 µM; IC50 ([2]; Table 2, read-out: MMP-9 IC50): > 100 µM; inhibition at 50 µM ([4]; 50 μM, Matrigel): 33%; inhibition in vivo at 50 mg/kg ([5]; IP, 50 mg/kg daily for 21 days, lung tumors counted, read-out: In vivo murine melanoma % reduction IP): 68%; inhibition in vivo at 50 mg/kg ([5]; PO, 50 mg/kg daily for 21 days, lung tumors counted, read-out: In vivo murine melanoma % reduction PO): 90%; oral bioavailability [5]: 90%
NCCNC(=O)P(=O)(O)O [Compound 6, H2N(CH2)2NHCOPO3H2] |  | 43 | 45 | 57 |  |  |  |  |  | 800 | 2 | 
O=C(N[C@@H]1C[C@H]2CC[C@@H]1C2)P(=O)(O)O (relative stereo) [Compound 10a, N-[exo-2-norbornyl]carbamoylphosphonic acid] |  |  |  |  |  | 170 to 172 | > 100000 | 1000 | > 100000 | 15000 | > 100 | 
CN(C)CCNC(=O)P(=O)(O)O [Compound 7, Me2N(CH2)2NHCOPO3H2] |  | 75 | 66 | 75 | 29 |  |  |  |  | 30 | 20 | 
C[C@H](NC(=O)P(=O)(O)O)C1CCCCC1 [Compound 9a] |  |  |  |  |  | 167 to 168 | 100 | 2000 | > 100000 |  |  | IC50 ([1]; Table 2, read-out: MMP-2 IC50): 1000 nM; IC50 ([2]; Table 2, read-out: MMP-9 IC50): 10 µM
O=P(O)(O)C(=S)NC1CCCCC1 [Compound 4, CyclohexylNHCSPO3H2] |  | 38 | 50 | 68 |  |  |  |  |  | 100 | > 100 | 
O=C(NC1CCCC1)P(=O)(O)O [Compound 1, CyclopentylNHCOPO3H2] | 80 | 70 | 65 | 72 | 71 |  |  |  |  |  |  | toxicity [9]: toxic at 250 mg/kg and 500 mg/kg doses
O=P(O)(O)C(=S)NCC1CCCCC1 [Compound 8, N-(Cyclohexylmethyl)thiocarbamoylphosphonic acid] |  | 75 | 70 | 80 | 80 |  |  |  |  | 15 | 0.015 | oral bioavailability [5]: improved oral bioavailability
O=C(NC1CCCCC1)P(=O)(O)O [Compound 3, CyclohexylNHCOPO3H2] | 3000 | 50 | 46 | 64 |  |  |  |  |  |  |  | 
N[C@H]1CCCC[C@@H]1NC(=O)P(=O)(O)O (relative stereo) [Compound 11a, Trans-2-aminocyclohexylcarbamoyl phosphonic acid] |  |  |  |  |  |  | 25000 | 90000 | 50000 | 20000 | > 100 | 
O=C(N[C@@H]1C[C@@H]2CC[C@H]1C2)P(=O)(O)O (relative stereo) [Compound 10, N-[endo-2-norbornyl]carbamoylphosphonic acid] |  | 30 | 25 | 87 | 80 | 164 to 165 | > 100000 | > 100000 | > 100000 | 100 | > 100 | times more active on MMP-2 than its analog or isomer [1]: 150 times; IC50 ([2]; read-out: MMP-9 IC50 μM, Table 2): > 100 µM
O=P(O)(O)C(=S)NC1CCCC1 [Compound 2, CyclopentylNHCSPO3H2] |  |  | 70 | 56 | 70 |  |  |  |  | 70 | 50 | 
